Data on two substances can be found in patent US12146131B2, “Testing apparatus and testing method” (HITACHI HIGH-TECH CORPORATION, priority 2019, dated 2024).

Holding throughout (type): cell-based
Test [1] concerns bacteria. The experiment in a line: drug sensitivity test, bacterial area value from time-series microscopic images (image processing of first embodiment). The conditions noted are these: FIG. 9. The text has this:
(§1) In a drug sensitivity test for bacteria, it is important to measure properties of bacteria and increase or decrease in the number of bacteria, and in a third embodiment, for example, an example applied to the drug sensitivity test will be described. Also in the third embodiment, the fine particle testing apparatus 100 described in the first embodiment can be used. However, the sample solution 108 contains bacteria, a medium component necessary for growth of the bacteria, and an antimicrobial agent to be tested. The fine particle testing apparatus 100 is temperature-adjusted to a temperature suitable for growth of the bacteria, for example, 37° C. Further, a plate having 96 holes or 384 holes can be used as the testing plate 102.
FIG. 9 is a diagram illustrating a relationship of the area of a bacterial region corresponding to the sum of area values of fine particles obtained by executing the processing of steps 200 to 204 (image processing of the first embodiment) on a plurality of time-series images obtained by the imaging part 105 of the fine particle testing apparatus 100. This measurement result is a result of imaging bacteria cultured for 8 hours in a culture solution containing ampicillin/sulbactam at concentrations of 0.5/0.25 μg/mL and 32/16 μg/mL.

For test [2], the system named is bacteria. The experiment in a line: drug sensitivity test, turbidity measurement of the well after 18 hours of culture. The note with it: turbidity after 18 hours from start of culture.
Excerpt: as §1, with “Further, a plate having 96 holes or 384 holes can be used as the testing plate 102.” left out
Here, the sensitivity of this bacterium to ampicillin/sulbactam is found to be “proliferation” at a concentration of 0.5/0.25 μg/mL and “suppression” at a concentration of 32/16 μg/mL by turbidity measurement of the well after 18 hours from the start of culture. […] This example has shown that proliferation/suppression is determined at two concentrations of the antimicrobial agent, but actually, the concentration of the drug is more finely changed to determine proliferation/suppression. The minimum antimicrobial agent concentration is referred to as minimum inhibitory concentration (MIC), and the MIC is preferably calculated based on the result of proliferation/suppression. […]

The subject of test [3] is Pseudomonas aeruginosa. The experiment in a line: drug sensitivity test, turbidity measurement after 18 hours of culture. The note with it: turbidity after 18 hours from start of culture.
For test [4], the system named is Pseudomonas aeruginosa. The experiment in a line: drug sensitivity test, bacterial area value from time-series microscopic images (image processing of second embodiment). The note with it: cultured 12 hours, FIG. 10.
Excerpt: as §1
In the fine particle testing apparatus 100, an image is acquired by focusing the lens 104 on the vicinity of the well bottom surface of the testing plate 102 for each imaging. However, in a case where the fine particles are bacteria, in particular, highly motile bacteria, even if adjustment is performed for each imaging so as to focus on one well each time, an image with a clear contour may not be acquired, resulting in an image as illustrated in FIGS. 8A to 8B. As an example of such a case, a measurement example using Pseudomonas aeruginosa considered to have high motility as a bacterium different from the result of FIG. 9 will be described (see FIG. 10). […]

For ampicillin/sulbactam, the “bacterial area value over time” value is on record as “starts to increase exponentially after 2 hours from the start of culture” in test [1] (ampicillin/sulbactam 0.5/0.25 μg/mL, cultured 8 hours) and “substantially unchanged from the initial value” in test [1] (ampicillin/sulbactam 32/16 μg/mL, within 8 hours from start of culture). Further, the “sensitivity of bacterium (proliferation/suppression)” value in test [2] (ampicillin/sulbactam 0.5/0.25 μg/mL) is “proliferation”; in test [2] (ampicillin/sulbactam 32/16 μg/mL) it was “suppression”.
For the substance gentamicin, the “sensitivity of bacterium (proliferation/suppression)” value in test [3] (gentamicin 0.12 μg/mL) is “proliferation”; in test [3] (gentamicin 8 μg/mL), “suppression”. The “bacterial area value over time” value in test [4] (gentamicin 0.12 μg/mL) is recorded as “starts to increase exponentially after 4 hours from the start of culture”; in test [4] (gentamicin 8 μg/mL), “slightly increases”.
